Laboratory results from patent publication US12077503B2, “Substituted cyclic amides and their use as herbicides” (FMC CORPORATION, priority 2015, dated 2024).
Where two headings read alike, the source gives them in different places.

Legend:
[1] = system: pigweed (Amaranthus retroflexus); assay: Test A preemergence; assay type: in vivo; details: Amaranthus retroflexus, pre-emergence, 240 h; for pest or weed control at 125 g/ha: 125 g ai/ha; for pest or weed control at 500 g/ha: 500 g ai/ha; for pest or weed control at 31 g/ha: 31 g ai/ha
[2] = system: giant foxtail (Setaria faberii); assay: Test A preemergence; assay type: in vivo; details: Setaria faberi, pre-emergence, 240 h; for pest or weed control at 125 g/ha: 125 g ai/ha; for pest or weed control at 500 g/ha: 500 g ai/ha; for pest or weed control at 31 g/ha: 31 g ai/ha
Summary of the method: (§1)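 Preemergence soil spray on seeded pots or post-emergence spray on 1–2 leaf plants, in loam–sand blend. Greenhouse ~10 d. Visual rating 0–100 against untreated plants.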

[3] = system: barnyardgrass (Echinochloa crus-galli); assay: Test A preemergence; assay type: in vivo; details: Echinochloa crus-galli, pre-emergence, 240 h; for pest or weed control at 125 g/ha: 125 g ai/ha; for pest or weed control at 500 g/ha: 500 g ai/ha; for pest or weed control at 31 g/ha: 31 g ai/ha
Summary of the method: as §1

[4] = system: ragweed (common ragweed, Ambrosia elatior); assay: Test A preemergence; assay type: in vivo; details: Ambrosia artemisiifolia, pre-emergence, 240 h; for pest or weed control at 125 g/ha: 125 g ai/ha; for pest or weed control at 500 g/ha: 500 g ai/ha; for pest or weed control at 31 g/ha: 31 g ai/ha
Summary of the method: as §1

[5] = system: ryegrass, Italian (Italian ryegrass, Lolium multiflorum); assay: Test A preemergence; assay type: in vivo; details: Lolium multiflorum, pre-emergence, 240 h; for pest or weed control at 125 g/ha: 125 g ai/ha; for pest or weed control at 500 g/ha: 500 g ai/ha; for pest or weed control at 31 g/ha: 31 g ai/ha
Summary of the method: as §1

[6] = preemergence, visual rating after approx. 10 d, 0 to 100 scale where 0 is no effect and 100 is complete control, read-out: Plant response rating, Pigweed
[7] = preemergence, visual rating after approx. 10 d, 0 to 100 scale where 0 is no effect and 100 is complete control, read-out: Plant response rating, Foxtail, Giant
[8] = preemergence, visual rating after approx. 10 d, 0 to 100 scale where 0 is no effect and 100 is complete control, read-out: Plant response rating, Barnyardgrass
[9] = preemergence, visual rating after approx. 10 d, 0 to 100 scale where 0 is no effect and 100 is complete control, read-out: Plant response rating, Ragweed
[10] = preemergence, visual rating after approx. 10 d, 0 to 100 scale where 0 is no effect and 100 is complete control, read-out: Plant response rating, Ryegrass, Italian
[11] = Preemergence, 0 to 100 scale (0 no effect, 100 complete control), read-out: Plant response rating, Pigweed
[12] = Preemergence, 0 to 100 scale (0 no effect, 100 complete control), read-out: Plant response rating, Foxtail, Giant
[13] = Preemergence, 0 to 100 scale (0 no effect, 100 complete control), read-out: Plant response rating, Barnyardgrass
[14] = Preemergence, 0 to 100 scale (0 no effect, 100 complete control), read-out: Plant response rating, Ragweed
[15] = Preemergence, 0 to 100 scale (0 no effect, 100 complete control), read-out: Plant response rating, Ryegrass, Italian
[16] = preemergence, 0 to 100 scale where 0 is no effect and 100 is complete control, read-out: Pigweed plant response rating
[17] = preemergence, 0 to 100 scale where 0 is no effect and 100 is complete control, read-out: Foxtail, Giant plant response rating
[18] = preemergence, 0 to 100 scale where 0 is no effect and 100 is complete control, read-out: Barnyardgrass plant response rating
[19] = preemergence, visual injury rating about 10 d after treatment, 0 to 100 scale (0 no effect, 100 complete control), read-out: Pigweed plant response rating
[20] = preemergence, visual injury rating about 10 d after treatment, 0 to 100 scale (0 no effect, 100 complete control), read-out: Foxtail, Giant plant response rating
[21] = preemergence, visual injury rating about 10 d after treatment, 0 to 100 scale (0 no effect, 100 complete control), read-out: Barnyardgrass plant response rating
[22] = preemergence, visual injury rating about 10 d after treatment, 0 to 100 scale (0 no effect, 100 complete control), read-out: Ragweed plant response rating
[23] = preemergence, visual injury rating about 10 d after treatment, 0 to 100 scale (0 no effect, 100 complete control), read-out: Ryegrass, Italian plant response rating

## O=C1NC[C@H](c2cnc(C(F)(F)F)nc2)[C@H]1C(=O)Nc1ccccc1F [Compound 741]
other
  melting point: 227 to 231 °C
[1]; [6]
  pest or weed control at 125 g/ha: 0%
[1]; preemergence, 0 to 100 scale, 0 = no effect, 100 = complete control, read-out: Plant response rating, Pigweed
  pest or weed control at 500 g/ha: 40%
[2]; [7]
  pest or weed control at 125 g/ha: 0%
[2]; preemergence, 0 to 100 scale, 0 = no effect, 100 = complete control, read-out: Plant response rating, Foxtail, Giant
  pest or weed control at 500 g/ha: 0%
[3]; [8]
  pest or weed control at 125 g/ha: 0%
[3]; preemergence, 0 to 100 scale, 0 = no effect, 100 = complete control, read-out: Plant response rating, Barnyardgrass
  pest or weed control at 500 g/ha: 0%
[4]; [9]
  pest or weed control at 125 g/ha: 0%
[4]; preemergence, 0 to 100 scale, 0 = no effect, 100 = complete control, read-out: Plant response rating, Ragweed
  pest or weed control at 500 g/ha: 0%
[5]; [10]
  pest or weed control at 125 g/ha: 0%
[5]; preemergence, 0 to 100 scale, 0 = no effect, 100 = complete control, read-out: Plant response rating, Ryegrass, Italian
  pest or weed control at 500 g/ha: 0%

## O=C1NC[C@H](c2cncs2)[C@H]1C(=O)Nc1cccc(F)c1F [Compound 1336]
other
  melting point: 111 to 142 °C
[1]; preemergence, 0 to 100 scale (0 no effect, 100 complete control), read-out: Plant response rating, Pigweed
  pest or weed control at 500 g/ha: 0%
[1]; [11]
  pest or weed control at 125 g/ha: 0%
[2]; preemergence, 0 to 100 scale (0 no effect, 100 complete control), read-out: Plant response rating, Foxtail, Giant
  pest or weed control at 500 g/ha: 0%
[2]; [12]
  pest or weed control at 125 g/ha: 0%
[3]; preemergence, 0 to 100 scale (0 no effect, 100 complete control), read-out: Plant response rating, Barnyardgrass
  pest or weed control at 500 g/ha: 0%
[3]; [13]
  pest or weed control at 125 g/ha: 0%
[4]; preemergence, 0 to 100 scale (0 no effect, 100 complete control), read-out: Plant response rating, Ragweed
  pest or weed control at 500 g/ha: 0%
[4]; [14]
  pest or weed control at 125 g/ha: 0%
[5]; preemergence, 0 to 100 scale (0 no effect, 100 complete control), read-out: Plant response rating, Ryegrass, Italian
  pest or weed control at 500 g/ha: 0%
[5]; [15]
  pest or weed control at 125 g/ha: 0%

## O=C1NCC[C@H](c2ccc(Cl)cc2)[C@H]1C(=O)Nc1cccc(F)c1F [Compound 795]
other
  melting point: 86 to 89 °C
[1]; [6]
  pest or weed control at 125 g/ha: 0%
[1]; [11]
  pest or weed control at 31 g/ha: 0%
[2]; [7]
  pest or weed control at 125 g/ha: 70%
[2]; [12]
  pest or weed control at 31 g/ha: 0%
[3]; [8]
  pest or weed control at 125 g/ha: 80%
[3]; [13]
  pest or weed control at 31 g/ha: 30%
[4]; [9]
  pest or weed control at 125 g/ha: 0%
[4]; [14]
  pest or weed control at 31 g/ha: 0%
[5]; [10]
  pest or weed control at 125 g/ha: 0%
[5]; [15]
  pest or weed control at 31 g/ha: 0%

## Cc1cc([C@H]2CN(C)C(=O)[C@@H]2C(=O)Nc2cccc(F)c2F)on1 [Compound 1196]
other
  melting point: 144 to 148 °C
[1]; preemergence, visual injury rating, 0 to 100 scale where 0 is no effect and 100 is complete control, approximately 10 d, read-out: Pigweed plant response rating
  pest or weed control at 125 g/ha: 0%
[1]; [16]
  pest or weed control at 500 g/ha: 0%
[2]; preemergence, visual injury rating, 0 to 100 scale where 0 is no effect and 100 is complete control, approximately 10 d, read-out: Foxtail, Giant plant response rating
  pest or weed control at 125 g/ha: 70%
[2]; [17]
  pest or weed control at 500 g/ha: 90%
[3]; preemergence, visual injury rating, 0 to 100 scale where 0 is no effect and 100 is complete control, approximately 10 d, read-out: Barnyardgrass plant response rating
  pest or weed control at 125 g/ha: 50%
[3]; [18]
  pest or weed control at 500 g/ha: 90%
[4]; preemergence, visual injury rating, 0 to 100 scale where 0 is no effect and 100 is complete control, approximately 10 d, read-out: Ragweed plant response rating
  pest or weed control at 125 g/ha: 0%
[4]; preemergence, 0 to 100 scale where 0 is no effect and 100 is complete control, read-out: Ragweed plant response rating
  pest or weed control at 500 g/ha: 0%
[5]; preemergence, visual injury rating, 0 to 100 scale where 0 is no effect and 100 is complete control, approximately 10 d, read-out: Ryegrass, Italian plant response rating
  pest or weed control at 125 g/ha: 0%
[5]; preemergence, 0 to 100 scale where 0 is no effect and 100 is complete control, read-out: Ryegrass, Italian plant response rating
  pest or weed control at 500 g/ha: 0%

## C/C=C/C1CNC(=O)C1C(=O)Nc1ccccc1F (stereo not shown) [Compound 792]
other
  melting point: 133 to 137 °C
[1]; [6]
  pest or weed control at 125 g/ha: 0%
[1]; [11]
  pest or weed control at 31 g/ha: 0%
[2]; [7]
  pest or weed control at 125 g/ha: 0%
[2]; [12]
  pest or weed control at 31 g/ha: 0%
[3]; [8]
  pest or weed control at 125 g/ha: 0%
[3]; [13]
  pest or weed control at 31 g/ha: 0%
[4]; [9]
  pest or weed control at 125 g/ha: 0%
[4]; [14]
  pest or weed control at 31 g/ha: 0%
[5]; [10]
  pest or weed control at 125 g/ha: 0%
[5]; [15]
  pest or weed control at 31 g/ha: 0%

## CN1C[C@H](c2ccc(C(F)(F)F)cc2)[C@@H](C(=O)Nc2cccc(F)c2Cl)C1=O [Compound 938]
other
  melting point: 169 to 172 °C
[1]; [16]
  pest or weed control at 125 g/ha: 80%
[1]; [19]
  pest or weed control at 500 g/ha: 90%
[2]; [17]
  pest or weed control at 125 g/ha: 90%
[2]; [20]
  pest or weed control at 500 g/ha: 90%
[3]; [18]
  pest or weed control at 125 g/ha: 90%
[3]; [21]
  pest or weed control at 500 g/ha: 90%
[4]; [22]
  pest or weed control at 500 g/ha: 20%
[5]; [23]
  pest or weed control at 500 g/ha: 30%

## CCc1ccccc1NC(=O)[C@H]1C(=O)N(C)C[C@@H]1c1ccc(C(F)(F)F)cc1 [Compound 935]
other
  melting point: 116 to 119 °C
[1]; [16]
  pest or weed control at 125 g/ha: 20%
[1]; [19]
  pest or weed control at 500 g/ha: 20%
[2]; [17]
  pest or weed control at 125 g/ha: 90%
[2]; [20]
  pest or weed control at 500 g/ha: 90%
[3]; [18]
  pest or weed control at 125 g/ha: 70%
[3]; [21]
  pest or weed control at 500 g/ha: 90%
[4]; [22]
  pest or weed control at 500 g/ha: 30%
[5]; [23]
  pest or weed control at 500 g/ha: 50%
